Tests used:
Type in all cases: ADME, organism-based
[1] = Half life upon i.v. administration at the dose of 2 mg/kg in rat; design: dose 2 mg/kg, route intravenous; details: in vivo, iv
[2] = Clearance upon i.v. administration at the dose of 2 mg/kg in rat; design: dose 2 mg/kg, route intravenous; details: in vivo, iv
[3] = Volume distribution upon i.v. administration at the dose of 2 mg/kg in rat; design: dose 2 mg/kg, route intravenous; details: in vivo, iv
[4] = Bioavailability in rats when administered 10 mg/kg orally; details: rat, in vivo, po, read-out: Bioavailabiility
[5] = Peak plasma concentration in rats when administered 10 mg/kg orally; design: dose 10 mg/kg, route oral; details: rat, po

Row | Compound | half-life [1] [h] | clearance [2] [L/h/kg] | Vd ([3]; read-out: Vd) [L/kg] | T1/2 [1] [h] | Cl [2] [L/h/kg] | Vd [3] [L/kg] | bioavailability [4] [%] | Cmax [5] [µM]
1 | C(#Cc1ccccn1)C1=CC(Oc2ccncc2)CCC1 (stereo not drawn) | 0.8 | 2.46 | 1.2 |  |  |  |  | 
2 | C(#Cc1ccccn1)C1=CCC(Nc2cccnc2)CC1 (stereo not drawn) | 0.5 | 2.04 | 1.4 |  |  |  |  | 
3 | Cc1ccc(S(=O)(=O)N2CC=C(C#Cc3ccccn3)CC2)cc1 |  |  |  | 1.5 | 1.74 | 14.7 |  | 
4 | C(#Cc1ccccn1)C1=CCCCC1 | 3.9 | 2.7 | 9.1 |  |  |  |  | 
5 | O=S(=O)(c1ccc(Br)cc1)N1CC=C(C#Cc2ccccn2)CC1 | 1.1 | 3.84 | 3.98 |  |  |  | 10 | 0.02
6 | Clc1cncc(OC2C=C(C#Cc3ccccn3)CCC2)c1 (stereo not drawn) | 4.8 | 1.92 | 7.2 |  |  |  |  | 
7 | C(#Cc1ccccn1)C1=CC(Oc2cccnc2)CCC1 (stereo not drawn) | 0.3 | 5.64 | 2.2 |  |  |  |  | 

Source: ChEMBL document CHEMBL1140392, “Cyclohexenyl- and dehydropiperidinyl-alkynyl pyridines as potent metabotropic glutamate subtype 5 (mGlu5) receptor antagonists” (Bioorg Med Chem Lett, 2005)
